From ChEMBL document CHEMBL1909046, “DrugMatrix in vitro pharmacology data” come the findings set out here.

Each structure is given as a SMILES string.

Sequence of Acetylcholinesterase (P22303 whole entry): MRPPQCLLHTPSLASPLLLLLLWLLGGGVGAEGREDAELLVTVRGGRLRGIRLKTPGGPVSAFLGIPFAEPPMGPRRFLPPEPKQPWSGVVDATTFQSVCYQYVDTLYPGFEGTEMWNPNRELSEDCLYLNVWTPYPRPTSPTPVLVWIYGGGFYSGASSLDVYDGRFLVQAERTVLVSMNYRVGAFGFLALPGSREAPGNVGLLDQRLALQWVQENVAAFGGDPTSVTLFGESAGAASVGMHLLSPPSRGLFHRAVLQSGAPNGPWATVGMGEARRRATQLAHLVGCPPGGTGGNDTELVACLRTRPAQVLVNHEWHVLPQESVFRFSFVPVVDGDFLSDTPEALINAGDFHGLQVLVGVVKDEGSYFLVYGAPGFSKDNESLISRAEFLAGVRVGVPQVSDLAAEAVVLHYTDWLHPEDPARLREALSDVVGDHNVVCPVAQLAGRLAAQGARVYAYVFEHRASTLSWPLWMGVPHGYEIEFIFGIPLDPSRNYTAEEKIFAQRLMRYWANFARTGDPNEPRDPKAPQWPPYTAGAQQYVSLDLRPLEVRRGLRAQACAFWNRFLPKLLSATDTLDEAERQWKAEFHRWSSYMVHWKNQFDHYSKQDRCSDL

One experiment concerns the target T1, Endothelin-1 receptor (Homo sapiens, UniProt P25101). Further: in other assays of this panel Not Active means under 50% inhibition at 10 µM.
T1 sequence (P25101 whole entry): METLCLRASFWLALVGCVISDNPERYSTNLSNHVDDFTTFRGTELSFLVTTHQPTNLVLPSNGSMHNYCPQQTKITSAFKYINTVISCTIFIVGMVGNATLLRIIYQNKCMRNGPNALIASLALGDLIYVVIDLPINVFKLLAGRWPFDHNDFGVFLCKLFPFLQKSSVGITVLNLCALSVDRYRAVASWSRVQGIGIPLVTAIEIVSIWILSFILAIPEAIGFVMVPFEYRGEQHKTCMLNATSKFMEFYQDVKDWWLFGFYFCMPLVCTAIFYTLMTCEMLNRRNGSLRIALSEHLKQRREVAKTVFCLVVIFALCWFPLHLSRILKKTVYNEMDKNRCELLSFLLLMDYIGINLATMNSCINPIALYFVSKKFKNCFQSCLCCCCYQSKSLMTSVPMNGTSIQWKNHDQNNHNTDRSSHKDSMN
The class given is cell membranes, CHO-K1, Membrane. To be noted: cho-k1.
Turning to `COc1ccc(C[C@H]2NC[C@H](O)[C@H]2OC(C)=O)cc1` [ANISOMYCIN], the IC50 entry is listed as “Not Active” and the Ki result is on record as “Not Active”.

Consider `C[C@]12CCC(=O)C=C1CC[C@@H]1[C@@H]2CC[C@@]2(C)[C@H]1CC[C@]2(C)O` [METHYLTESTOSTERONE], for which the IC50 result is recorded as “Not Active”.

Regarding `O=C1CC[C@@H](N2C(=O)c3ccccc3C2=O)C(=O)N1`, the IC50 entry is recorded as “Not Active”.

With `Cc1c(O)c(=O)ccn1C` [DEFERIPRONE], the IC50 entry was “Not Active”.

In the case of `CCOc1ccc(NC(C)=O)cc1` [PHENACETIN], the IC50 entry was “Not Active”.

System in another experiment: not listed separately
The experiment in a line: DRUGMATRIX: Glutamate, Kainate radioligand binding (ligand: [3H] Kainic acid). To be noted: Not Active = under 50% inhibition at 10 µM. Type of experiment: cell membranes, Rattus norvegicus, Wistar, Brain, Membrane.
As for `COc1ccc(C[C@H]2NC[C@H](O)[C@H]2OC(C)=O)cc1` [ANISOMYCIN], the IC50 entry is on record as “Not Active” and the Ki entry is on record as “Not Active”.

`C[C@]12CCC(=O)C=C1CC[C@@H]1[C@@H]2CC[C@@]2(C)[C@H]1CC[C@]2(C)O` [METHYLTESTOSTERONE]: the IC50 result is “Not Active” and the Ki entry is “Not Active”.

Take `O=C1CC[C@@H](N2C(=O)c3ccccc3C2=O)C(=O)N1`: the IC50 entry is reported as “Not Active” and the Ki entry is “Not Active”.

For the molecule `Cc1c(O)c(=O)ccn1C` [DEFERIPRONE], the IC50 entry is given as “Not Active” and the Ki result is “Not Active”.

Turning to `CCOc1ccc(NC(C)=O)cc1` [PHENACETIN], the IC50 result is given as “Not Active” and the Ki result is on record as “Not Active”.

System in the next experiment: not listed separately
The experiment in a line: DRUGMATRIX: Glutamate, NMDA, Agonism radioligand binding (ligand: [3H] CGP-39653). Particulars: Not Active = under 50% inhibition at 10 µM. The class given is cell membranes, Rattus norvegicus, Wistar, Cerebral cortex, Membrane.
Take `COc1ccc(C[C@H]2NC[C@H](O)[C@H]2OC(C)=O)cc1` [ANISOMYCIN]: the IC50 entry is “Not Active” and the Ki result is recorded as “Not Active”.

As to `C[C@]12CCC(=O)C=C1CC[C@@H]1[C@@H]2CC[C@@]2(C)[C@H]1CC[C@]2(C)O` [METHYLTESTOSTERONE], the IC50 result is listed as “Not Active” and the Ki entry is on record as “Not Active”.

On to `O=C1CC[C@@H](N2C(=O)c3ccccc3C2=O)C(=O)N1`, for which the IC50 entry is reported as “Not Active” and the Ki result was “Not Active”.

As for `Cc1c(O)c(=O)ccn1C` [DEFERIPRONE], the IC50 entry is given as “Not Active” and the Ki entry is “Not Active”.

For `CCOc1ccc(NC(C)=O)cc1` [PHENACETIN], the IC50 result is listed as “Not Active” and the Ki entry was “Not Active”.

The target of the next experiment is T2, 3-hydroxy-3-methylglutaryl-coenzyme A reductase (Homo sapiens, UniProt P04035).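 Further: enzyme inhibition assay of HMG-CoA reductase using radiolabeled [14C]HMG-CoA as substrate; in other assays of this panel Not Active means under 50% inhibition at 10 µM.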
T2 sequence (P04035 whole entry): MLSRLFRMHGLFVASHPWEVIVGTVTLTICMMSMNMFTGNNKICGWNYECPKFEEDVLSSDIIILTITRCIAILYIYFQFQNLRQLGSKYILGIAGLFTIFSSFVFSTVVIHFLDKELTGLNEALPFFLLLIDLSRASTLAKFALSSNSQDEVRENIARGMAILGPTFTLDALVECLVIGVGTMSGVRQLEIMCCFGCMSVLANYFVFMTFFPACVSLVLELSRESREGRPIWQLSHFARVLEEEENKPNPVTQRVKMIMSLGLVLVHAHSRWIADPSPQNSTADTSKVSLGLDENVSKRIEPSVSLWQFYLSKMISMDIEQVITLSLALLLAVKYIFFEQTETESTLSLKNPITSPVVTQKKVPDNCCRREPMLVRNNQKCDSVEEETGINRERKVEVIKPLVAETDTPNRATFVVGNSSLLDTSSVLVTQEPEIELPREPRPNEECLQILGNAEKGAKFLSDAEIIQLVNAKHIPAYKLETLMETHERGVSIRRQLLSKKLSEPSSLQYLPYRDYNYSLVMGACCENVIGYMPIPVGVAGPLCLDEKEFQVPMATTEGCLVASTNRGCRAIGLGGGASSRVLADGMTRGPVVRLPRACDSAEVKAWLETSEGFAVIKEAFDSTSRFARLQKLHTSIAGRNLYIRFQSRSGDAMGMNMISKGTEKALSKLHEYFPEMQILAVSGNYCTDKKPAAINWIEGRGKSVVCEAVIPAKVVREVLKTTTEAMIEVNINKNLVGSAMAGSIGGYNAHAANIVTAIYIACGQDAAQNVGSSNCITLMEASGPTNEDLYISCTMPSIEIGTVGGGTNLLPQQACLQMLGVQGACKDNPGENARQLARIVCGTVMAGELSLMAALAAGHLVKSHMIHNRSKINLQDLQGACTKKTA
On the set-up: species or system Escherichia coli.
Details: not given
For the molecule `COc1ccc(C[C@H]2NC[C@H](O)[C@H]2OC(C)=O)cc1` [ANISOMYCIN], the IC50 result is on record as “Not Active” and the Ki result was “Not Active”.

Regarding `C[C@]12CCC(=O)C=C1CC[C@@H]1[C@@H]2CC[C@@]2(C)[C@H]1CC[C@]2(C)O` [METHYLTESTOSTERONE], the IC50 entry is listed as “Not Active”.

Regarding `O=C1CC[C@@H](N2C(=O)c3ccccc3C2=O)C(=O)N1`, the IC50 result was “Not Active”.

Take `Cc1c(O)c(=O)ccn1C` [DEFERIPRONE]: the IC50 entry is “Not Active”.

With `CCOc1ccc(NC(C)=O)cc1` [PHENACETIN], the IC50 entry is “Not Active”.

System in a further experiment: not listed separately
Nature of the experiment: DRUGMATRIX: Interleukin IL-1 radioligand binding (ligand: [125I] interleukin 1beta). Type of experiment: cell membranes, Membrane. Particulars: nih3t3; Not Active = under 50% inhibition at 10 µM.
In the case of `COc1ccc(C[C@H]2NC[C@H](O)[C@H]2OC(C)=O)cc1` [ANISOMYCIN], the IC50 result is recorded as “Not Active” and the Ki result is given as “Not Active”.

Consider `C[C@]12CCC(=O)C=C1CC[C@@H]1[C@@H]2CC[C@@]2(C)[C@H]1CC[C@]2(C)O` [METHYLTESTOSTERONE], for which the IC50 result is given as “Not Active” and the Ki result was “Not Active”.

As for `O=C1CC[C@@H](N2C(=O)c3ccccc3C2=O)C(=O)N1`, the IC50 entry is given as “Not Active” and the Ki entry is “Not Active”.

As for `Cc1c(O)c(=O)ccn1C` [DEFERIPRONE], the IC50 result is given as “Not Active” and the Ki result is “Not Active”.

As for `CCOc1ccc(NC(C)=O)cc1` [PHENACETIN], the IC50 entry was “Not Active” and the Ki entry is “Not Active”.

The next experiment concerns the target T3, Cysteinyl leukotriene receptor 1 (Homo sapiens, UniProt Q9Y271). Further: in other assays of this panel Not Active means under 50% inhibition at 10 µM.
T3 sequence (Q9Y271 whole entry): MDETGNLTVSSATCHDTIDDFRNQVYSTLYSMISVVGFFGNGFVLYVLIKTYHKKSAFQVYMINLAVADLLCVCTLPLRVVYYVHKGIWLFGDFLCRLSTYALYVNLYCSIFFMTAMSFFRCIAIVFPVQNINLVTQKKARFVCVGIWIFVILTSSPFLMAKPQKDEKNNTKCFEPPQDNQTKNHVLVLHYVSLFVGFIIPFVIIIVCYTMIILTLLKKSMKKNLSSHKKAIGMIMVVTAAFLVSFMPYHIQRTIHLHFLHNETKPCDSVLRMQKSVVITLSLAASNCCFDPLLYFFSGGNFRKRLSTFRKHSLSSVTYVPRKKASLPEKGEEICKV
The class given is cell membranes, CHO-K1, Membrane. To be noted: cho-k1.
Regarding `COc1ccc(C[C@H]2NC[C@H](O)[C@H]2OC(C)=O)cc1` [ANISOMYCIN], the IC50 result is “Not Active” and the Ki entry is listed as “Not Active”.

Consider `C[C@]12CCC(=O)C=C1CC[C@@H]1[C@@H]2CC[C@@]2(C)[C@H]1CC[C@]2(C)O` [METHYLTESTOSTERONE], for which the IC50 result is “Not Active”.

Take `O=C1CC[C@@H](N2C(=O)c3ccccc3C2=O)C(=O)N1`: the IC50 entry is reported as “Not Active”.

For `Cc1c(O)c(=O)ccn1C` [DEFERIPRONE], the IC50 entry was “Not Active”.

Regarding `CCOc1ccc(NC(C)=O)cc1` [PHENACETIN], the IC50 result is recorded as “Not Active”.

The next experiment has as its target cGMP-specific 3',5'-cyclic phosphodiesterase (Homo sapiens, UniProt O76074). Nature of the experiment: DRUGMATRIX: Phosphodiesterase PDE5 enzyme inhibition (substrate: [3H]cGMP + cGMP). Type of experiment: tissue-based. To be noted: platelet; Not Active = under 50% inhibition at 10 µM.
Turning to `COc1ccc(C[C@H]2NC[C@H](O)[C@H]2OC(C)=O)cc1` [ANISOMYCIN], the IC50 entry is “Not Active” and the Ki entry is “Not Active”.

Take `C[C@]12CCC(=O)C=C1CC[C@@H]1[C@@H]2CC[C@@]2(C)[C@H]1CC[C@]2(C)O` [METHYLTESTOSTERONE]: the IC50 result is listed as “Not Active”.

In the case of `O=C1CC[C@@H](N2C(=O)c3ccccc3C2=O)C(=O)N1`, the IC50 entry is “Not Active”.

As for `Cc1c(O)c(=O)ccn1C` [DEFERIPRONE], the IC50 result is listed as “Not Active”.

Regarding `CCOc1ccc(NC(C)=O)cc1` [PHENACETIN], the IC50 entry is given as “Not Active”.

The next experiment concerns the target Acetylcholinesterase (Homo sapiens, UniProt P22303). Nature of the experiment: DRUGMATRIX: Acetylcholinesterase enzyme inhibition (substrate: acetylthiocholine). The class given is cell-based, HEK293. To be noted: hek293; Not Active = under 50% inhibition at 10 µM.
For the molecule `COc1ccc(C[C@H]2NC[C@H](O)[C@H]2OC(C)=O)cc1` [ANISOMYCIN], the IC50 entry was “Not Active” and the Ki result is recorded as “Not Active”.

As for `C[C@]12CCC(=O)C=C1CC[C@@H]1[C@@H]2CC[C@@]2(C)[C@H]1CC[C@]2(C)O` [METHYLTESTOSTERONE], the IC50 entry is “Not Active”.

With `O=C1CC[C@@H](N2C(=O)c3ccccc3C2=O)C(=O)N1`, the IC50 result is on record as “Not Active”.

As for `Cc1c(O)c(=O)ccn1C` [DEFERIPRONE], the IC50 result was “Not Active”.

Consider `CCOc1ccc(NC(C)=O)cc1` [PHENACETIN], for which the IC50 entry was “Not Active”.

The target of the next experiment is T4, Adenosine receptor A1 (Homo sapiens, UniProt P30542).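 Further: radioligand binding assay at the adenosine A1 receptor, with DPCPX serving as the labelled ligand; in other assays of this panel Not Active means under 50% inhibition at 10 µM.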
T4 sequence (P30542 whole entry): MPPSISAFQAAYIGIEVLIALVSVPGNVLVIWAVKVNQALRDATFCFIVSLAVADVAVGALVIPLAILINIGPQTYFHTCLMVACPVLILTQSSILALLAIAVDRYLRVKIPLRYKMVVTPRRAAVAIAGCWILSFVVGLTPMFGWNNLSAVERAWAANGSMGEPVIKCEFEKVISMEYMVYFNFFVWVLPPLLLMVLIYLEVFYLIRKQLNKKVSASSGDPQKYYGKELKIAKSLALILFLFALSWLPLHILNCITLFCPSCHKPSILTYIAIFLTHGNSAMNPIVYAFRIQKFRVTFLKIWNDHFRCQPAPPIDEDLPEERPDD
The class given is cell membranes, CHO, Membrane. To be noted: cho.
Consider `COc1ccc(C[C@H]2NC[C@H](O)[C@H]2OC(C)=O)cc1` [ANISOMYCIN], for which the IC50 entry is given as “Not Active” and the Ki result is given as “Not Active”.

On to `C[C@]12CCC(=O)C=C1CC[C@@H]1[C@@H]2CC[C@@]2(C)[C@H]1CC[C@]2(C)O` [METHYLTESTOSTERONE], for which the IC50 result is given as “Not Active”.

As to `O=C1CC[C@@H](N2C(=O)c3ccccc3C2=O)C(=O)N1`, the IC50 result is “Not Active”.

With `Cc1c(O)c(=O)ccn1C` [DEFERIPRONE], the IC50 entry is recorded as “Not Active”.

Take `CCOc1ccc(NC(C)=O)cc1` [PHENACETIN]: the IC50 entry is recorded as “Not Active”.
